The source of these data is ChEMBL document CHEMBL3877316, “Synthesis of pharmacologically important naphthoquinones and anticancer activity of 2-benzyllawsone through DNA topoisomerase-II inhibition” (Bioorg Med Chem, 2017).

What all share (format): organism-based
Common to all, as to details: in vivo, 168 h

In data set [1] the test system is Mus musculus. Put plainly: Acute toxicity in Swiss albino mouse assessed as changes in relative weight of lungs up to 1000 mg/kg, po qd administered as single dose for 7 days.
The test system of data set [2] is Mus musculus. Put plainly: Acute toxicity in Swiss albino mouse assessed as changes in absolute weight of kidney up to 1000 mg/kg, po qd administered as single dose for 7 days.
Data set [3] relates to Mus musculus. Put plainly: Acute toxicity in Swiss albino mouse assessed as serum WBC level at 50 mg/kg, po qd administered as single dose for 7 days (reference value: 8.64 +/- 0.42 10^3/mm3).
Data set [4] relates to Mus musculus. The experiment in a line: Acute toxicity in Swiss albino mouse assessed as serum triglycerides level at 50 mg/kg, po qd administered as single dose for 7 days (reference value: 107.9 +/- 10.7 mg/dl).
Data set [5] concerns Mus musculus. Put plainly: Acute toxicity in Swiss albino mouse assessed as serum triglycerides level at 300 mg/kg, po qd administered as single dose for 7 days (reference value: 107.9 +/- 10.7 mg/dl).
Data set [6] relates to Mus musculus. The experiment in a line: Acute toxicity in Swiss albino mouse assessed as serum protein level at 300 mg/kg, po qd administered as single dose for 7 days (reference value: 2.91 +/- 0.31 mg/ml).

As to `O=C1C=C(OCc2ccccc2)C(=O)c2ccccc21`, the Activity result in data set [1] was “Non-Toxic”; in data set [2], “Non-Toxic”; in data set [3] it was 8.38 ×10³ /mm3; in data set [4] it was 112.9 mg/dL; in data set [5] it was 119.3 mg/dL; in data set [6], 2.43 mg/mL.
